Source: patent US11116735B2, “Use of substituted benzylideneguanidine derivatives as synergists for polymyxin antibiotics” (GUANGZHOU INSIGHTER BIOTECHNOLOGY CO., LTD., priority 2015, dated 2021)

Legend:
[1] = system: E. coli 3Y-9; assay: MIC by doubling dilution, colistin sulfate-susceptible E. coli 3Y-9; assay type: cell-based, Escherichia coli; conditions: for In vitro minimum inhibitory concentration (MIC) of the substance alone: E. coli 3Y-9, colistin sulfate-susceptible, derivatives as hydrochlorides; for In vitro MIC of colistin sulfate in the presence of the substituted benzylideneguanidine derivative: E. coli 3Y-9, culture comprised 20.0 ppm of the derivative (hydrochloride), colistin sulfate serially diluted
[2] = system: E. coli 2S-19; assay: MIC by doubling dilution, colistin sulfate-susceptible E. coli 2S-19; assay type: cell-based, Escherichia coli; conditions: for In vitro minimum inhibitory concentration (MIC) of the substance alone: E. coli 2S-19, colistin sulfate-susceptible, derivatives as hydrochlorides; for In vitro MIC of colistin sulfate in the presence of the substituted benzylideneguanidine derivative: E. coli 2S-19, culture comprised 20.0 ppm of the derivative (hydrochloride), colistin sulfate serially diluted
[3] = system: E. coli 5W-7; assay: MIC by doubling dilution, colistin sulfate-susceptible E. coli 5W-7; assay type: cell-based, Escherichia coli; conditions: for In vitro minimum inhibitory concentration (MIC) of the substance alone: E. coli 5W-7, colistin sulfate-susceptible, derivatives as hydrochlorides; for In vitro MIC of colistin sulfate in the presence of the substituted benzylideneguanidine derivative: E. coli 5W-7, culture comprised 20.0 ppm of the derivative (hydrochloride), colistin sulfate serially diluted
[4] = system: E. coli 3B-24; assay: MIC by doubling dilution, colistin sulfate-susceptible E. coli 3B-24; assay type: cell-based, Escherichia coli; conditions: for In vitro minimum inhibitory concentration (MIC) of the substance alone: E. coli 3B-24, colistin sulfate-susceptible, derivatives as hydrochlorides; for In vitro MIC of colistin sulfate in the presence of the substituted benzylideneguanidine derivative: E. coli 3B-24, culture comprised 20.0 ppm of the derivative (hydrochloride), colistin sulfate serially diluted
[5] = system: weanling piglets; assay: Synergy of derivatives and colistin sulfate in the feed for weanling piglets; assay type: in vivo, Duroc×Landrace×Large crossbred lean weanling piglets; conditions: creep feed with 20 ppm colistin sulfate and 150 ppm derivative (hydrochloride), ten days
Procedure: 90 28-day-aged Duroc×Landrace×Large crossbred lean weanling piglets similar in weight were divided into 9 groups, 10 piglets in each group. For each group, colistin sulfate and/or various substituted benzylideneguanidine derivatives were added into the antibiotic-free creep feed. The piglets were given ad libitum access to feed and water during the experiment. Weight gain, feed efficiency and diarrhea rate of each group within ten days were recorded.

[6] = system: E. coli 2G-7; assay: MIC by doubling dilution, colistin sulfate-resistant E. coli 2G-7; conditions: for In vitro minimum inhibitory concentration (MIC) of the substance alone: E. coli 2G-7, colistin sulfate-resistant, derivatives as hydrochlorides; for In vitro MIC of colistin sulfate in the presence of the substituted benzylideneguanidine derivative: E. coli 2G-7, resistant, culture comprised 20.0 ppm of the derivative (hydrochloride)
Procedure: (§1) In vitro minimum inhibitory concentrations of colistin sulfate against the strains where the cultures respectively comprised 20.0 ppm of the substituted benzylideneguanidine derivatives were also measured.

[7] = system: E. coli 5F-1; assay: MIC by doubling dilution, colistin sulfate-resistant E. coli 5F-1; conditions: for In vitro minimum inhibitory concentration (MIC) of the substance alone: E. coli 5F-1, colistin sulfate-resistant, derivatives as hydrochlorides; for In vitro MIC of colistin sulfate in the presence of the substituted benzylideneguanidine derivative: E. coli 5F-1, resistant, culture comprised 20.0 ppm of the derivative (hydrochloride)
Procedure: as §1

[8] = system: E. coli 4D-6; assay: MIC by doubling dilution, colistin sulfate-resistant E. coli 4D-6; conditions: for In vitro minimum inhibitory concentration (MIC) of the substance alone: E. coli 4D-6, colistin sulfate-resistant, derivatives as hydrochlorides; for In vitro MIC of colistin sulfate in the presence of the substituted benzylideneguanidine derivative: E. coli 4D-6, resistant, culture comprised 20.0 ppm of the derivative (hydrochloride)
Procedure: as §1

[9] = system: E. coli 3H-4; assay: MIC by doubling dilution, colistin sulfate-resistant E. coli 3H-4; conditions: for In vitro minimum inhibitory concentration (MIC) of the substance alone: E. coli 3H-4, colistin sulfate-resistant, derivatives as hydrochlorides; for In vitro MIC of colistin sulfate in the presence of the substituted benzylideneguanidine derivative: E. coli 3H-4, resistant, culture comprised 20.0 ppm of the derivative (hydrochloride)
Procedure: as §1

Structure (SMILES)	In vitro minimum inhibitory concentration (MIC) of the substance alone [1]	In vitro MIC of colistin sulfate in the presence of the substituted benzylideneguanidine derivative [1]	In vitro minimum inhibitory concentration (MIC) of the substance alone [2]	In vitro MIC of colistin sulfate in the presence of the substituted benzylideneguanidine derivative [2]	In vitro minimum inhibitory concentration (MIC) of the substance alone [3]	In vitro MIC of colistin sulfate in the presence of the substituted benzylideneguanidine derivative [3]	In vitro minimum inhibitory concentration (MIC) of the substance alone [4]	In vitro MIC of colistin sulfate in the presence of the substituted benzylideneguanidine derivative [4]	Average daily weight gain [5]	Diarrhea rate [5]	Feed conversion ratio [5]	In vitro minimum inhibitory concentration (MIC) of the substance alone [6]	In vitro MIC of colistin sulfate in the presence of the substituted benzylideneguanidine derivative [6]	In vitro minimum inhibitory concentration (MIC) of the substance alone [7]	In vitro MIC of colistin sulfate in the presence of the substituted benzylideneguanidine derivative [7]	In vitro minimum inhibitory concentration (MIC) of the substance alone [8]	In vitro MIC of colistin sulfate in the presence of the substituted benzylideneguanidine derivative [8]	In vitro minimum inhibitory concentration (MIC) of the substance alone [9]	In vitro MIC of colistin sulfate in the presence of the substituted benzylideneguanidine derivative [9]
COc1ccc(C=NN=C(N)NN=Cc2ccc(OC)cc2)cc1 [Compound 1]	>800 ppm	1.00 ppm	>800 ppm	1.00 ppm	>800 ppm	0.50 ppm	>800 ppm	1.00 ppm	243 g	18%	1.529	>800 ppm	1.0 ppm	>800 ppm	2.0 ppm	>800 ppm	4.0 ppm	>800 ppm	2.0 ppm
CCCCCCCCOc1ccc(C=NNC(=N)NN=Cc2ccc(OCCCCCCCC)cc2)cc1 [Compound 4]	>800 ppm	1.00 ppm	>800 ppm	1.00 ppm	>800 ppm	0.50 ppm	>800 ppm	1.00 ppm	239 g	19%	1.532	>800 ppm	4.0 ppm	>800 ppm	8.0 ppm	>800 ppm	16 ppm	>800 ppm	4 ppm
N=C(N/N=C/c1ccc(Cl)cc1)N/N=C/c1ccc(Cl)cc1 [Compound 8]	>800 ppm	1.00 ppm	>800 ppm	1.00 ppm	>800 ppm	0.50 ppm	>800 ppm	1.00 ppm	220 g	33%	1.608	>800 ppm	4 ppm	>800 ppm	8 ppm	>800 ppm	16 ppm	>800 ppm	4 ppm
